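Dose response: 5 concentrations. Exposure: 48 h. Format: 96-well plates. Endpoint: linear interpolation; highest concentration if not reached. GI50 marks 50% less growth. At the TGI there is no net growth.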
Columns and labels:
Assay in all cases: NCI anticancer screen, dose series, 48 h
DLD-1 colon = test system: DLD-1 colon
SNB-78 CNS = test system: SNB-78 CNS
NCI-H23 lung = test system: NCI-H23 lung
EKVX NSCLC = test system: EKVX NSCLC
KM20L2 colon = test system: KM20L2 colon
TK-10 renal = test system: TK-10 renal
NCI-H460 lung = test system: NCI-H460 lung
UACC-62 melanoma = test system: UACC-62 melanoma
M19-MEL melanoma = test system: M19-MEL melanoma
M14 melanoma = test system: M14 melanoma

Structure (SMILES)	TGI (DLD-1 colon) [µM]	TGI (SNB-78 CNS) [µM]	TGI (NCI-H23 lung) [µM]	TGI (EKVX NSCLC) [µM]	TGI (KM20L2 colon) [µM]	TGI (TK-10 renal) [µM]	TGI (NCI-H460 lung) [µM]	TGI (UACC-62 melanoma) [µM]	TGI (M19-MEL melanoma) [µM]	TGI (M14 melanoma) [µM]	GI50 (DLD-1 colon) [µM]	GI50 (SNB-78 CNS) [µM]	GI50 (NCI-H23 lung) [µM]	GI50 (EKVX NSCLC) [µM]	GI50 (KM20L2 colon) [µM]	GI50 (TK-10 renal) [µM]	GI50 (NCI-H460 lung) [µM]	GI50 (UACC-62 melanoma) [µM]	GI50 (M19-MEL melanoma) [µM]	GI50 (M14 melanoma) [µM]
c1cncc(C2c3[nH]c4ccccc4c3CCN2CCCN2CCCCC2)c1 (configuration not stated)	> 100	> 100	> 100	> 100	> 100	> 100	> 100	> 100	> 100	41.1										
CC1=CC(=O)C(C)(C2=NC(C)(C)CO2)c2ccccc21 (configuration not stated)	> 100		> 100	> 100	> 100	> 100	> 100	> 100	> 100	> 100										
CC[O-].CC[O-].[O-]c1ccccc1C=Nc1ccccc1.[O-]c1ccccc1C=Nc1ccccc1.[Ti+4]	> 100	> 100	> 100	> 100	> 100	> 100	> 100	> 100	> 100	> 100	> 100	> 100	> 100	> 100	23.7	> 100	> 100	> 100	> 100	> 100
CCOC(=O)C1Cc2c(ccc(OC)c2OC)C(=O)C1N (configuration not stated)	> 100	> 100	> 100	36.1	> 100	> 100	> 100	> 100	> 100	> 100										
CC(=O)CC(=O)N(CCN(C(=O)CC(C)=O)c1ccccc1)c1ccccc1	> 100	> 100	> 100	> 100	> 100	> 100	> 100	> 100	> 100	> 100										
CN1C(=O)n2c(nc3ccccc32)C(N=[N+]=[N-])(N=[N+]=[N-])C1=O (configuration not stated)	> 100	> 100	> 100	> 100	> 100	> 100	> 100	> 100	> 100	> 100										
O=C1c2ccccc2C(=O)N1/N=C\c1ccc(Br)cc1	> 100	> 100	> 100	> 100	> 100	> 10	> 10	> 100	> 100	> 100	> 100	> 100	> 100	> 100	> 100			> 100	> 100	> 100
CCOC(=O)C12CCCC1(O)N(NC(=O)c1cccc(Cl)c1)C(C)=C2C(=O)OC (configuration not stated)	> 100			> 100	> 100		> 100	> 100	> 100	> 100										
CCC[CH2][Sn]1([CH2]CCC)[O]C(c2ccccn2)S(=O)(=O)[O]1 (configuration not stated)	12.7	5.86	3.5	5.61	20.2	5.84	30.4	3.78	14.4	11.2	3.31	1.6	1.72	2.29	6.65	2.54	16.8	1.84	4.1	3.57
COc1cccc(/C=C(/C(=O)O)c2cc(OC)c(OC)c(OC)c2)c1	> 100	> 100		> 100	> 100	> 100	> 100	> 100	> 100	> 100										
CC1(C)CCC(=O)c2c(O)ccc(O)c21		> 100	> 100	> 100	> 100	> 100		> 100	> 100											
CSc1nc(NC2OCC(OC(C)=O)C(OC(C)=O)C2OC(C)=O)c(N=CC=Nc2c(NC3OCC(OC(C)=O)C(OC(C)=O)C3OC(C)=O)nc(SC)n(C)c2=O)c(=O)n1C (configuration not stated)	> 100		> 100	> 100	> 100	> 100	> 100	> 100	> 100	> 100										
Nn1c(CCCl)nc2c(Br)cc(Br)cc2c1=O	> 79.4	> 100	62.8	> 93.7	65.4	> 100	65.1	> 83.8	> 82	> 70										
CCOC(=O)/C(=C/c1ccc(OC)c(OC)c1)C(=O)c1ccccc1	34.5	56.3	35.6	67.4	38.7	65.4	> 100	29.5	44.1	28.9										
C/C(CC(=O)CCCC(=O)Nc1ccc(Cl)cc1Cl)=N/NC(=O)CC#N	> 100	> 100	> 100	> 100	> 100	> 100	> 100	> 100	> 100	> 100										
Cc1cc(C)c(C(=O)O)c(N)c1O	> 100		> 100	> 100	> 100	> 100		> 100	> 100	> 100										

— PubChem BioAssay (NCI)
